Measured values: US10160747B2, “Compounds and methods for kinase modulation, and indications therefor” (Plexxikon Inc., priority 2016, dated 2018)

Key:
FLT3-ITD = biological target: T1, FLT3-ITD (Homo sapiens, UniProt P36888); experiment: FLT3-ITD recombinant enzyme kinase assay (AlphaScreen); type: biochemical; details: 8 pt; read-out: FLT3_ITD 8 pt: IC50
T1 sequence (P36888 1-993): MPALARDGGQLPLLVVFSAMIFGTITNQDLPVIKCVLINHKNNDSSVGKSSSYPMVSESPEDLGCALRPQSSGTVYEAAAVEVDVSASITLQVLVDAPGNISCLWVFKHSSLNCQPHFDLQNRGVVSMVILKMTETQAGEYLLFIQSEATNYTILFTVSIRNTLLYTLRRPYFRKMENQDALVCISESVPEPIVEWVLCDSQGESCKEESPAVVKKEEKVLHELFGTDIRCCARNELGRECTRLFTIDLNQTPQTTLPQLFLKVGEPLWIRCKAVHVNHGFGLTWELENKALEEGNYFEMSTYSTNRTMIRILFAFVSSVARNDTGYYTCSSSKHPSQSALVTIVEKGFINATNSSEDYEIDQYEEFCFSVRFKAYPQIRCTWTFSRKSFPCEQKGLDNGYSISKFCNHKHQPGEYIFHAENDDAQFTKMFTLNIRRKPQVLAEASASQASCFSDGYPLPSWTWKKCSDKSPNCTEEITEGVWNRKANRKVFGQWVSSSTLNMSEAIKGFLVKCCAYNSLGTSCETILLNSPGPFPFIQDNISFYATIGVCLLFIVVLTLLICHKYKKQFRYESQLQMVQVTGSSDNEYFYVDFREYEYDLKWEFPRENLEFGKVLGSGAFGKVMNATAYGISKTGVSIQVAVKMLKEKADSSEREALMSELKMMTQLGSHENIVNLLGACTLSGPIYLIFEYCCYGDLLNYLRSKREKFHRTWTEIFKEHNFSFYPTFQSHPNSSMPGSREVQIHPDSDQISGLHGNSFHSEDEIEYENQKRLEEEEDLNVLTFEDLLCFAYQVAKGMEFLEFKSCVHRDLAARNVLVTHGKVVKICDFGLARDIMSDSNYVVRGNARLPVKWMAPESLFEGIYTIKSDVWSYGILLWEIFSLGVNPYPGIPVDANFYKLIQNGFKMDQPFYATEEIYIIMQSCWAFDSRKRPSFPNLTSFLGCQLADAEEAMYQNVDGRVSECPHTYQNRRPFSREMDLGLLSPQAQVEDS
Summary of the method: (§1)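 IC50 values are derived from reduced AlphaScreen signal as inhibitors block tyrosine phosphorylation of a biotinylated poly(Glu4-Tyr) peptide (30 nM) by recombinant kinase. FLT3 variants are run at 10 μM ATP, c-KIT at 100 μM.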

FLT3-D835Y = biological target: T2, FLT3-D835Y (Homo sapiens, UniProt P36888, D835Y); experiment: FLT3-D835Y recombinant enzyme kinase assay (AlphaScreen); type: biochemical; details: 8 pt, GMean
T2 construct: purchased Invitrogen PV3967
T2 sequence (P36888 27-993 D835Y): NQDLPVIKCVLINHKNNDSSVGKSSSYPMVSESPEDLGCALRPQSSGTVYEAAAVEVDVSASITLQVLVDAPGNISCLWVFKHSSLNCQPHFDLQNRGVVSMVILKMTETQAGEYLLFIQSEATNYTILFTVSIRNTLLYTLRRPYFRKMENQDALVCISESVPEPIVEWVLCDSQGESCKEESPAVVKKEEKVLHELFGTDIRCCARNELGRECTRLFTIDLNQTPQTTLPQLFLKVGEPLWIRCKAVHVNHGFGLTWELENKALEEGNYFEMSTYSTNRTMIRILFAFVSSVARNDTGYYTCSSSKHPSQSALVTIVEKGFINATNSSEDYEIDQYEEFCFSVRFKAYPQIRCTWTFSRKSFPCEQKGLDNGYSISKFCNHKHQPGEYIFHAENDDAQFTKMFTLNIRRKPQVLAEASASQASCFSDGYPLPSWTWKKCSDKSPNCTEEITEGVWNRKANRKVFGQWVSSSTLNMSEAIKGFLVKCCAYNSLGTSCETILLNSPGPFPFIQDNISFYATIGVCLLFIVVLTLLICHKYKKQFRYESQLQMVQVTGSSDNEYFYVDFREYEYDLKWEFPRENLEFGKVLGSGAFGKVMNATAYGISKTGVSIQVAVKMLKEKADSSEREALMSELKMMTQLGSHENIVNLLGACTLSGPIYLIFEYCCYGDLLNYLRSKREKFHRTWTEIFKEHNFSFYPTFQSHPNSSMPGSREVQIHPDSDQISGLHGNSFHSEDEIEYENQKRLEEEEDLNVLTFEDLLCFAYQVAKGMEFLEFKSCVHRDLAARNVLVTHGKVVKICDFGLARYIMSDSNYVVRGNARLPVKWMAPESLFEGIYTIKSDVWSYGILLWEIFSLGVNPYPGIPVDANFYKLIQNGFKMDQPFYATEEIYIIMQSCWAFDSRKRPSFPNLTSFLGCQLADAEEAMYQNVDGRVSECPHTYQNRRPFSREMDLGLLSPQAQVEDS
Summary of the method: as §1

| Compound | IC50 (FLT3-ITD) | IC50 (FLT3-D835Y) |
| --- | --- | --- |
| COc1ccc(-c2cc3cc(-c4ccc(CC(=O)Nc5cncc(C(F)(F)F)c5)cc4F)cnc3[nH]2)cn1 [Compound P-0196, 2-[3-fluoro-4-[2-(6-methoxy-3-pyridyl)-1H-pyrrolo[2,3-b]pyridin-5-yl]phenyl]-N-[5-(trifluoromethyl)-3-pyridyl]acetamide] | 0.0001 to 10 µM | 0.0001 to 10 µM |
| O=C(Cc1ccc(-c2cnc3[nH]c(-c4cnn(C(F)F)c4)cc3c2)c(F)c1)Nc1cncc(C(F)(F)F)c1 [Compound P-0197, 2-[4-[2-[1-(difluoromethyl)pyrazol-4-yl]-1H-pyrrolo[2,3-b]pyridin-5-yl]-3-fluoro-phenyl]-N-[5-(trifluoromethyl)-3-pyridyl]acetamide] | 0.0001 to 10 µM | 0.0001 to 10 µM |
| O=C(Cc1ccc(-c2cnc3[nH]c(-c4ccc(N5CCOCC5)nc4)cc3c2)c(F)c1)Nc1cncc(C(F)(F)F)c1 [Compound P-0198, 2-[3-fluoro-4-[2-(6-morpholino-3-pyridyl)-1H-pyrrolo[2,3-b]pyridin-5-yl]phenyl]-N-[5-(trifluoromethyl)-3-pyridyl]acetamide] | 0.0001 to 10 µM | 0.0001 to 10 µM |
